In patent US20050154031A1, “5-Ht2b receptor antagonists” (priority 2002, published 2005):

Assays:
[1] = biological target: T1, human cloned 5-HT2B receptors (Homo sapiens, UniProt P41595); assay: Human cloned 5-HT2B receptor binding assay ([3H]LSD); details: membranes of CHO-K1 cells expressing cloned 5-HT2B receptor, [3H]LSD 1 nM; read-out: 5-HT2B pKi (converted)
T1 construct: expressed in transfected cells; host or cells: CHO-K1
Protocol: Human Cloned 5-HT2B Receptor Binding Assay
The binding affinity of the compounds for human cloned 5-HT2B receptors was determined using the following assay.
CHO-K1 cells expressing cloned 5-HT2B receptor were maintained in Ultra-CHO medium containing 400 μg/ml of G418, 100 U/ml penicillin, 100 μg/ml streptomycin, 2.5 μg/ml fungizone and 1% foetal bovine serum, in 95/5% O2/CO2 at 37° C. The cells were harvested using 0.25% trypsin and were centrifuged at 800 rpm for 8 minutes. The cells were homogenised in 50 mM HEPES buffer containing 1 mM disodium EDTA and 1 mM PMSF at pH 7.4, using a Dounce homogeniser (20 strokes). The homogenate was centrifuged at 2280 rpm (1000 g) and 4° C. for 10 minutes, after which the supernatant was removed by decanting. The pellet was re-homogenised as above, and the resulting supernatant removed and combined with that already obtained. The supernatant solution was then centrifuged at 18300 rpm (40000 g) for 10 minutes at 4° C. using a Sorvall centrifuge. The supernatant was removed, and the pellet was re-suspended in 50 mM buffer at pH 7.4 using a Ultra-turrax T25 Polytron, before centrifugation again at 40000 g as above. This wash procedure was repeated, after which the membrane preparation was stored at a concentration of 1 mg/ml at −80° C. until use.
The membranes were thawed rapidly and diluted in assay buffer containing Tris-HCl (50 mM, pH 7.4), ascorbic acid (0.1%) and calcium chloride (4 mM). The membranes were homogenised to resuspend them, prior to adding 10 or 15 μg of membranes to assay wells containing [^3H]LSD (1 nM), assay buffer (50 mM Tris, 4 mM calcium chloride and 0.1% ascorbic acid) containing pargyline (10 μM), and the test compounds (1×10^−10 to 1×10^−4 M). Non specific binding was determined in the presence of 100 μM 5-HT. After 30 minutes incubation at 37° C., the assay mixture was filtered through a combination of GF-C and GF-B filters, pre-soaked in 1% polyethyleneimine, using a Brandel cell harvester, and were washed three times using 50 mM Tris-HCl. Radioactivity retained on the filters was determined by liquid scintillation counting. For each test compound, the concentration that inhibited binding of [^3H)LSD by 50% was determined using curve fitting software (Prism). Kd values (concentration of LSD required to occupy 50% of the receptor binding sites at equilibrium) determined from saturation binding studies were then used to calculate inhibition dissociation constants (Ki) using the following equation: [formula]
This approach follows that set out in Kenakin, T. P. Pharmacologic analysis of drug-receptor interaction. Raven Press, New York, 2nd Edition, which is incorporated herein by reference.

[2] = biological target: T1, human cloned 5-HT2B receptors; assay: Human cloned 5-HT2B cell-based functional assay (Fluo-4, block of 5-HT response); details: CHO.K1 cells expressing cloned 5-HT2B receptor, inhibition of the 5-HT response
Protocol: Human Cloned […] Cell-Based Functional Assay The following describes an in vitro functional assay using human cloned 5-HT2B receptors to determine the ability of compounds to block the receptor. CHO.K1 cells expressing cloned 5-HT2B receptor were maintained In Ultra-CHO medium containing 400 μg/ml of G418, 100 U/ml penicillin, 100 μg/ml streptomycin, 2.5 μg/ml fungizone, in 95/5% O2/CO2 at 37° C. Ultra-CHO medium additionally supplemented with 1% foetal bovine serum was used when seeding the cells and removed after 5 hours. Cells were plated in Costar 96 well white, clear-bottomed plate at a density of 50,000 cells per well and incubated for at least 24 hours in 95/5% O2/CO2 at 37° C. before running the assay. Media was removed from the wells and 200 μl of 4 μM Fluo-4 AM added, this was incubated in a Wallace Victor 2V workstation at 37° C. for 30 minutes. The Fluo-4 AM was then removed from the wells, which were then washed twice with 200 μl of buffer (HBSS without calcium/magnesium/phenol red, 20 mM HEPES, 1 mM Ca^2+, 1 mM Mg^2+, 2.5 mM probenecid, pH to 7.4), 180 μl of buffer or test compound was added to the well and incubated for 30 minutes. The Victor 2V injectors were used to inject 20 μl of 5-HT after obtaining 10 0.1-second baseline readings at 535 nm, followed by 150 readings. All test compounds were aliquoted in 100% DMSO at 10 mM and diluted to 1 mM in 50% DMSO, subsequent dilutions were made using buffer. Buffer was also used to dilute the 5-HT. Data were analysed using Microsoft Excel and GraphPad Prism, with the latter used to produce sigmoidal dose-response curves for each compound. The compound concentration that inhibited the 5-HT response by 50% was taken (IC50−M), and the results are shown in Table 2, as pIC50, being the negative log (to the base 10) of the measured IC50 values.

[3] = biological target: T2, cloned human 5-HT2A receptor (Homo sapiens, UniProt P28223); assay: Human 5-HT2A receptor binding assay ([3H]ketanserin); details: membranes of CHO-K1 cells expressing cloned human 5-HT2A receptor, [3H]ketanserin 1 nM; read-out: 5-HT2A pKi (converted)
T2 construct: purchased Euroscreen; host or cells: CHO-K1
T2 sequence (P28223 whole entry): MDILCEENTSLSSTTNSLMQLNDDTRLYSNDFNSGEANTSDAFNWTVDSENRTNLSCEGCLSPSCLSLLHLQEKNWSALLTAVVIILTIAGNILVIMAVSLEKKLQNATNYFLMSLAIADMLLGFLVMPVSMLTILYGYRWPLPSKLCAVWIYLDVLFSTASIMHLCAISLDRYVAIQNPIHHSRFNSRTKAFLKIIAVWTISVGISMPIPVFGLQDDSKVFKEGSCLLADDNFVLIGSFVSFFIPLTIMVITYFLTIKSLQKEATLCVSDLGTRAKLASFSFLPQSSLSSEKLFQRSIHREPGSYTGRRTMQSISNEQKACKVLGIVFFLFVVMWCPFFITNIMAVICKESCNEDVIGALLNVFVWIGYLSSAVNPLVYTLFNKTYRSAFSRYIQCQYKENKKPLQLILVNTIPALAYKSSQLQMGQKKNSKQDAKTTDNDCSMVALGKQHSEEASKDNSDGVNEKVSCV
Protocol: (§1) Human 5-HT2A and 5-HT2C Receptor Binding Assays
(§2) The binding affinity of ligands for human 5-HT2A and 5-HT2C receptors was determined using the following assay.
Membrane preparations from CHO-K1 cells expressing the cloned human 5-HT2A receptor were obtained (Euroscreen). The membranes were thawed rapidly and diluted in assay buffer containing Tris-HCl (50 mM, pH 7.7). The membranes were resuspended by homogenisation, prior to adding 15 μg of membranes to assay wells containing [^3H] ketanserin (1 nM), assay buffer (50 mM Tris at pH 7.4) containing pargyline (10 μM), and test compounds (1×10^−10 to 1×10^−4M). Non specific binding was determined in the presence of 100 μM mianserin. After 15 minutes incubation at 37° C., the assay mixture was filtered through a combination of GF-C and GF-B filters, pre-soaked in 0.05% Brij, using a Brandel cell harvester, and were washed three times using ice cold Tris-HCl buffer (50 mM). Radioactivity retained on the filters was determined by liquid scintillation counting. For each test compound, the concentration that inhibited binding of [^3H]ketanserin by 50% was determined using curve fitting software (Prism). Kd values (concentration of ketanserin required to occupy 50% of the receptor binding sites at equlibrium)determined from saturation binding studies were then used to calculate inhibition dissociation constants (Ki) using the following equation: [formula]

[4] = biological target: T3, cloned human 5-HT2C receptor (Homo sapiens, UniProt P28335); assay: Human 5-HT2C receptor binding assay ([3H]mesulergine); details: membranes of CHO-K1 cells expressing cloned human 5-HT2C receptor, [3H]mesulergine 1 nM; read-out: 5-HT2C pKi (converted)
T3 construct: purchased Euroscreen; host or cells: CHO-K1
T3 sequence (P28335 33-458): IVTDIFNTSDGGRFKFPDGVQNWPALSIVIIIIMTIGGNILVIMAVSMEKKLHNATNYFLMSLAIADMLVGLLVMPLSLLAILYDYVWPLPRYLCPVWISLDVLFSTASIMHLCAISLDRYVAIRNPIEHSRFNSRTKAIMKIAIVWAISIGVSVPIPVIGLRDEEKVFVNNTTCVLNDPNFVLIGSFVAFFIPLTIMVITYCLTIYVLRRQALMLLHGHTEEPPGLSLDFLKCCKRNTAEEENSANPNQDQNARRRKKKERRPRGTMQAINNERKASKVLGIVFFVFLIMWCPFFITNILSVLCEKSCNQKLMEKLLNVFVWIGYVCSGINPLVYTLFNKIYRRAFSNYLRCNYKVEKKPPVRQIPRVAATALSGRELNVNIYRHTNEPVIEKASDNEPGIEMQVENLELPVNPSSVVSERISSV
Protocol: as §1, §2
Membrane preparations from CHO-K1 cells expressing the cloned human 5-HT2C receptor were obtained (Euroscreen). The membranes were thawed rapidly and diluted in assay buffer containing Tris-HCl (50 mM, pH 7.7), ascorbic acid (0.1%) and pargyline (10 μM). The membranes were resuspended by homogenisation, prior to adding 6 μg of membranes to assay wells containing [^3H] mesulergine (1 nM), assay buffer (50 mM Tris at pH 7.7 and 0.1% ascorbic acid) containing pargyline (10 μM), and test compounds (1×10^−10 to 1×10^−4M). Non specific binding was determined in the presence of 100 μM mianserin. After 30 minutes incubation at 37° C., the assay mixture was filtered through a combination of GF-C and GF-B filters, pre-soaked in 1% bovine serum albumin, using a Brandel cell harvester, and were washed three times using ice cold Tris-HCl buffer (50 mM). Radioactivity retained on the filters was determined by liquid scintillation counting. For each test compound, the concentration that inhibited binding of [^3H]mesulergine by 50% was determined using curve fitting software (Prism). Kd values (concentration of mesulergine required to occupy 50% of the receptor binding sites at equlibrium) determined from saturation binding studies were then used to calculate inhibition dissociation constants (Ki) using the following equation: [formula]

T1 sequence (P41595 whole entry): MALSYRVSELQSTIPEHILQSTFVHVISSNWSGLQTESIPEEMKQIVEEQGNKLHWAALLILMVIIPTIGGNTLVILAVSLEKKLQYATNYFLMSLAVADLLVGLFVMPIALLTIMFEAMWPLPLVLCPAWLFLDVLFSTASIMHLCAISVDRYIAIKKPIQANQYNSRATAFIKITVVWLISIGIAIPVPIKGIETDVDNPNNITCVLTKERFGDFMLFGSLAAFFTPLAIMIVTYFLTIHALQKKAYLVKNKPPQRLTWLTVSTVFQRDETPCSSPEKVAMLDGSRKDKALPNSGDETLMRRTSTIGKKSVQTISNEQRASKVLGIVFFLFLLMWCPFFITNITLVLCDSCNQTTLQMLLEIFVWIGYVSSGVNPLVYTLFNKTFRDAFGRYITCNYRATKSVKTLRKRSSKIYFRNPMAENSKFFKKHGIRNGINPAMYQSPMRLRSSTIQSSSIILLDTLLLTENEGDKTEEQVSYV

Ki [1]	IC50 [2]	Ki [3]	Ki [4]	SMILES
< 1 µM	< 1 µM	> 10 µM	> 1 µM	Cc1sc(N)nc1-c1cccc2ccccc12 [Compound 1, 2-amino-5-methyl-4-(naphth-1-yl)thiazole]
< 10 µM	< 10 µM	> 10 µM	> 10 µM	Nc1nc(-c2ccc3ccccc3c2)cs1 [Compound 4, 2-amino-4-(naphth-2-yl)thiazole]
< 0.1 µM	< 0.1 µM	> 1 µM	> 1 µM	CC(C)c1sc(N)nc1-c1cccc2ccccc12 [Compound 2, 2-amino-5-isopropyl-4-(naphth-1-yl)thiazole]

SMILES	Ki [1]	IC50 [2]	Ki [3]	Ki [4]
Nc1nc(-c2cccc3ccccc23)cs1 [Compound 3, 2-amino-4-(naphth-1-yl)thiazole]	< 1 µM	< 1 µM	> 1 µM	> 1 µM
